{"source": "patent US5827842A", "about": "“14α, 17α-C2 -bridged norprogesterone derivatives” (Schering Aktiengesellschaft, priority 1994, dated 1998)", "origin": "cited, not measured here", "tested_on": "endometrium"}
{"molecule": "CC(=O)[C@]12CC[C@@]3(CC1)[C@@H]1CCC4=CC(=O)CC[C@@H]4[C@H]1CC[C@]23C", "note": "[14,17-Ethano-19-norpregn-4-ene-3,20-dione]", "values": [{"measurement": "factor between subcutaneous and peroral action", "setting": "J. Med. Chem. 16, 270 (1973)", "result": "over 20"}, {"measurement": "gestagenic action in the Clauberg Test after oral administration", "setting": "oral administration", "result": "only a slight effect"}, {"measurement": "gestagenic action in the Clauberg Test after subcutaneous administration", "setting": "subcutaneous administration", "result": "good effect"}]}
